Active and inactive are the calls of the source.
Legend:
[1] = Luminescence Cell-Based Dose Retest to Confirm Inhibitors of Cancer Stem Cells. [Related pubchem assays (depositor defined):AID2717, AID2721]; assay type: functional; settings: Homo sapiens
Vero = test: viability loss in Vero cells – cell-based, plate reader, cherry-pick samples, cytotoxicity control, dose response (AID 687020); assay type: functional; settings: Chlorocebus sabaeus
BHK-21 = test: viability loss in BHK-21 cells – cell-based, plate reader, cherry-pick samples, cytotoxicity control, dose response (AID 687030); assay type: functional; settings: Mesocricetus auratus
A549 = test: viability loss in A549 cells – cell-based, plate reader, cherry-pick samples, cytotoxicity control, dose response (AID 687028); assay type: functional; settings: Homo sapiens
[2] = viability loss in HepG2 hepatoma cells – cell-based, ATP luminescence, cherry-pick, activator set 2, cytotoxicity control, dose response (AID 1053143); assay type: functional
[3] = tested on: Streptococcus sp. 'group A'; test: Streptococcus pyogenes SK(-)GAS viability under kanamycin – luminescence, BacTiterGlo, confirmation, counter-screen for streptokinase expression inhibitor project, dose response (AID 1900); assay type: functional, organism-based
[4] = molecular target: Induced myeloid leukemia cell differentiation protein Mcl-1 (Homo sapiens, UniProt Q07820); assay type: functional
Streptococcus = test: GAS UMAA2166 growth inhibition – luminescence, BacTiterGlo, counter-screen for streptokinase expression inhibitor project, dose response (AID 1915); assay type: functional, organism-based;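 note: potency for reduction of bacterial viability or growth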
[5] = HGIII-sPLA2 enzyme inhibition potency – biochemical, QFRET, IC50, dose response (AID 743457);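 note: green fluorescence rise as the enzyme cleaves BODIPY PC-A2 in liposomes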
[6] = molecular target: NAD-dependent protein deacylase sirtuin-5, mitochondrial (Homo sapiens, UniProt Q9NXA8); test: sirtuin-5 deacylation blockers, concentration series – biochemical, fluorescence imaging, cherry-pick, set 5, dose response (AID 720591);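 note: desuccinylation of succinyl peptide AMC substrate read as fluorescence after trypsin release; potency of inhibitors that lower fluorescence and may act on trypsin instead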
Paired box protein Pax-8 = Paired box protein Pax-8 (Homo sapiens, UniProt Q06710); test: PAX8 transcriptional activity inhibition in RMG-I – RMG-I cells, luciferase, cherry-pick, dose response (AID 687027); assay type: functional, cell-based;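 note: luciferase reporter driven by Pax8 target thyroperoxidase promoter measured by SteadyGlo luminescence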
[7] = general cell-killing toxicity readout – plate reader, dry powder samples, cytotoxicity control for PAX8 inhibitor project, dose response (AID 743021); assay type: functional, cell-based
[8] = molecular target: Potassium channel subfamily K member 9 (Homo sapiens, UniProt Q9NPC2); test: KCNK9 flux blockade, concentration-response – cell-based, FluxOR thallium flux, selectivity assay for TASK1 inhibitor project, SAR follow-up (AID 652211); assay type: functional;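 note: potency is for inhibitors of the channel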
[9] = molecular target: Potassium channel subfamily K member 3 (Rattus norvegicus, UniProt O54912); test: SAR analysis for the identification of selective inhibitors of the two-pore domain potassium channel TASK1(KCNK3):Automated Electrophysiology.; assay type: functional
[10] = viability loss in HepG2 hepatoma cells – cell-based, cherry-picks, set 5, cytotoxicity control, dose response (AID 1053118); assay type: functional
[11] = viability loss in HEK293 kidney cells – cell-based, cherry-picks, set 5, cytotoxicity control, dose response (AID 1053117); assay type: functional
[12] = viability loss in A549 lung cancer cells – cell-based, cherry-picks, […], cytotoxicity control, dose response (AID 1053119); assay type: functional
[13] = growth inhibition of yeast DHODH-expressing 3D7 parasites – SYBR Green, dry powder samples, dose response (AID 1159570); assay type: functional, cell-based;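 note: parasite growth measured after 72 hours of compound exposure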
[14] = toxicity to human HepG2 hepatoma cells – cell-based, plate reader, dry powder samples, cytotoxicity control, dose response (AID 1159569); assay type: functional;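 note: inhibitor potency with signal falling toward the positive control level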
[15] = P. falciparum Dd2 growth inhibitors, dose response, SYBR Green, cherry-picked samples (AID 1159567); assay type: functional, cell-based
[16] = Dd2 malaria parasite growth inhibition potency – SYBR Green, dry powder samples, dose response (AID 1159566); assay type: functional, cell-based;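 note: potency for growth inhibition with lower SYBR green DNA signal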
[17] = growth inhibition of PfATP4-mutant resistant parasites – NITD609-resistant line, SYBR Green, dry powder, dose response (AID 1159571); assay type: functional, cell-based;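 note: parasites synchronized at ring stage by sorbitol before testing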
[18] = HEK293T viability loss – cell-based, ATP luminescence, dry powder, Set6, cytotoxicity control, dose response (AID 743142); assay type: functional; settings: HEK293
[19] = viability loss in A549 lung cancer cells – cell-based, CellTiter-Glo luminescence, dry powder, set 3, cytotoxicity control, dose response (AID 743146); assay type: functional
[20] = molecular target: T1, High affinity choline transporter 1 (Homo sapiens, UniProt Q9GZV3); test: inhibition of SLC5A7-mediated choline transport – cell-based, HEK-293 hCHT, [3H]-choline uptake, dose response (AID 652177); assay type: functional
T1 sequence (Q9GZV3 whole entry): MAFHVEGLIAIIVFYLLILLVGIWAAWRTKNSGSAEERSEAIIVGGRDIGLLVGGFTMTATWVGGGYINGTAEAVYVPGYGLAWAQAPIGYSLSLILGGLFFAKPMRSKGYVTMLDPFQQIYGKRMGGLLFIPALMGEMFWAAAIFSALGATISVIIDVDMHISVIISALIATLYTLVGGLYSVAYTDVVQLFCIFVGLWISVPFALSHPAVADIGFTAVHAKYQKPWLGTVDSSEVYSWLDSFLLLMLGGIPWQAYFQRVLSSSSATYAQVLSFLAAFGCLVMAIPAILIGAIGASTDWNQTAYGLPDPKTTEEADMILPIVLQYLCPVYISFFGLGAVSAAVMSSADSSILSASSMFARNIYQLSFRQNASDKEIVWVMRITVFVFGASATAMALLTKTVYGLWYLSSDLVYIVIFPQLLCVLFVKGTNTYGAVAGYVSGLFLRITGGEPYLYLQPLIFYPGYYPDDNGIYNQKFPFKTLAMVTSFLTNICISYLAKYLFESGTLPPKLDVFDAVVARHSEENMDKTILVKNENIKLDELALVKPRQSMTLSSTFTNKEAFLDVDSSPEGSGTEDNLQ

[21] = Counterscreen for […] of the human trace amine associated receptor 1 (TAAR1): Fluorescence-based cell-based high throughput dose response assay to identify nonselective Ga16 agonists.; assay type: functional
[22] = molecular target: T2, Trace amine-associated receptor 1 (Homo sapiens, UniProt Q96RJ0); test: Fluorescence-based cell-based high throughput dose response assay to identify antagonists of the human trace amine associated receptor 1 (TAAR1).; assay type: functional
T2 sequence (Q96RJ0 whole entry): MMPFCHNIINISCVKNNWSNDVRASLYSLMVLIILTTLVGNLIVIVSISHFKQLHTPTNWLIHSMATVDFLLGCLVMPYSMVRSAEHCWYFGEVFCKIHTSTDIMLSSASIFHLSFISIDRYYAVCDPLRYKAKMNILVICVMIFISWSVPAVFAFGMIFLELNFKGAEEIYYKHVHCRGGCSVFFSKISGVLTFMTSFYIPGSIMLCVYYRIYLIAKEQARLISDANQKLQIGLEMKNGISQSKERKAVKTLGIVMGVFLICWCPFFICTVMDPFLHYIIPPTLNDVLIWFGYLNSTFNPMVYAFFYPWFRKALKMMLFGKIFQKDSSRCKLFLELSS

[23] = Counterscreen for antagonists of the human trace amine associated receptor 1 (hTAAR1): Fluorescence-based cell-based high throughput dose response assay to identify nonselective Ga16 antagonists.; assay type: functional
[24] = molecular target: T2, Trace amine-associated receptor 1; test: Counterscreen for antagonists of the human trace amine associated receptor 1 (hTAAR1): Fluorescence-based cell-based high throughput dose response assay to identify TAAR1 Agonists.; assay type: functional
[25] = NIH-3T3 fibroblast cytotoxicity, dose response, cytotoxicity control, cell-based, fluorescence, Alamar Blue, secondary assay (AID 2327); assay type: functional;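 note: NIH-3T3 mouse fibroblasts cultured with fluconazole at 8 µg/mL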
[26] = fluconazole-exposed Candida albicans growth modulators – fluorescence, retest, confirmation (AID 2467); assay type: functional, cell-based
[27] = Trypanosoma cruzi growth suppression in host cells – NIH3T3 host cells, beta-gal luminescence, confirmation (AID 2044); assay type: functional, cell-based;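 note: intracellular parasites grown in NIH/3T3 mouse fibroblasts as host cells; luminescent beta-galactosidase reporter signal from transgenic T. cruzi replicating inside host cells; inhibitors lower the luminescence signal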
[28] = molecular target: T3, Calpain-2 catalytic subunit (Sus scrofa, UniProt P43367); test: m-calpain protease blockers, concentration series – biochemical, fluorogenic peptide substrate, dose response (AID 1420); assay type: functional
T3 sequence (P43367 whole entry): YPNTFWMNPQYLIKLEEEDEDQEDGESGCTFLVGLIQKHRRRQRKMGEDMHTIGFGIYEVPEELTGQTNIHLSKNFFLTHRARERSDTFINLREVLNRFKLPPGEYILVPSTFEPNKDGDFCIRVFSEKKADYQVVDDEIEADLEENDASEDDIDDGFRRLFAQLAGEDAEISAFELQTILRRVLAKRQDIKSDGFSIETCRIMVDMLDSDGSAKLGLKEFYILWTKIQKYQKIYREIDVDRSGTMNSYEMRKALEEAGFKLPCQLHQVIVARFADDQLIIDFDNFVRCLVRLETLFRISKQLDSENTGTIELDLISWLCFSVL

[29] = NIH3T3 cell viability loss – ATP luminescence, mouse fibroblasts, counter-screen, dose response (AID 2010); assay type: functional, cell-based;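 note: cells exposed to compound for about 90 hours before reading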
[30] = blockers of HIV-1 envelope-mediated cell-cell fusion – cherry-pick, dose response (AID 652057); assay type: functional, cell-based
Galanin receptor type 3 = molecular target: T4, Galanin receptor type 3 (Homo sapiens, UniProt O60755); test: Fluorescence-based cell-based primary high throughput dose response assay to identify antagonists of the Galanin Receptor 3 (GalR3).; assay type: functional
T4 sequence (O60755 whole entry): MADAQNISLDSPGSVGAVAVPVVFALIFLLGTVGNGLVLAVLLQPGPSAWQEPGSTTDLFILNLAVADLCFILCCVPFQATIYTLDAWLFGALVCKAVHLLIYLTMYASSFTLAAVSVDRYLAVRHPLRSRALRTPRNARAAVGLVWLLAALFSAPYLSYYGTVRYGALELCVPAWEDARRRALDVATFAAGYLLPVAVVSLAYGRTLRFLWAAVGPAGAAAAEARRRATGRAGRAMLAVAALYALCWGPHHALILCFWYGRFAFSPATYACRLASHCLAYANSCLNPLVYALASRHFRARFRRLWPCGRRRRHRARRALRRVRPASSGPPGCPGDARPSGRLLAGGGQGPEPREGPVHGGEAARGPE

cells [31] = assay type: functional, cell-based; settings: HEK-CNG
[32] = viability loss in CEM21 cells – cell-based, CellTiter-Glo luminescence, cherry-picked, cytotoxicity control for viral fusion inhibitor project, dose response (AID 652042); assay type: functional;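 note: potency for signal decrease meaning cytotoxicity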
[33] = blockers of HIV-1 ZM109 envelope-driven cell-cell fusion – HeLa effector, CEM target cells, luciferase, cherry-pick, dose response (AID 652058); assay type: functional, cell-based;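 note: luciferase signal from HIV-1 Env mediated cell-cell fusion of effector and target cells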
[34] = HIV-1 AD8 envelope cell-cell fusion blockers – cherry-pick, dose response (AID 652062); assay type: functional, cell-based;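 note: luciferase signal from cell-cell fusion driven by HIV-1 clade B AD8 Env; potency is for inhibitors of fusion seen as a drop in luminescence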
cells [35] = test: cells

Chain of Paired box protein Pax-8 (Q06710 whole entry): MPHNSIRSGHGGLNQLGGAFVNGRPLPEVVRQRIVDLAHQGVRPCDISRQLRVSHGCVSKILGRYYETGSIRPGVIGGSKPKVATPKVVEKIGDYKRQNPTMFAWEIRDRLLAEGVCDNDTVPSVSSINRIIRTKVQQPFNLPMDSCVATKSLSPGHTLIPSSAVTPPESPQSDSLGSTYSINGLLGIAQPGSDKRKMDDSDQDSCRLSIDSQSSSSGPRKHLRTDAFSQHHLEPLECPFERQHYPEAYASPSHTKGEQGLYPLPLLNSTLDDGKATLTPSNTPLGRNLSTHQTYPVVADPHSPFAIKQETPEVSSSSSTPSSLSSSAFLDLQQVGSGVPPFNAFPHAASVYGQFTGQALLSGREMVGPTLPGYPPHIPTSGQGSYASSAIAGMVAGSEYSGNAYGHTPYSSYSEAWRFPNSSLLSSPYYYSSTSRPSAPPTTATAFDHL
Chain of Induced myeloid leukemia cell differentiation protein Mcl-1 (Q07820 whole entry): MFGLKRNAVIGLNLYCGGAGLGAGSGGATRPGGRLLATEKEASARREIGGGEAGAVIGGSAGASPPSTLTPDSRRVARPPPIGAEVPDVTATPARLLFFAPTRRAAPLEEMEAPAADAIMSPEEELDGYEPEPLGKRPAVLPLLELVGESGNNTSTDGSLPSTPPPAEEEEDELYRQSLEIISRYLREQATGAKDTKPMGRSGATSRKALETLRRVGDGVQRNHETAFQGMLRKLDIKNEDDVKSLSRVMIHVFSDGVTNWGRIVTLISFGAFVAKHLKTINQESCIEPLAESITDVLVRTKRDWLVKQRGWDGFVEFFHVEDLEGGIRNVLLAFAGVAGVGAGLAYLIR
Chain of NAD-dependent protein deacylase sirtuin-5, mitochondrial (Q9NXA8 whole entry): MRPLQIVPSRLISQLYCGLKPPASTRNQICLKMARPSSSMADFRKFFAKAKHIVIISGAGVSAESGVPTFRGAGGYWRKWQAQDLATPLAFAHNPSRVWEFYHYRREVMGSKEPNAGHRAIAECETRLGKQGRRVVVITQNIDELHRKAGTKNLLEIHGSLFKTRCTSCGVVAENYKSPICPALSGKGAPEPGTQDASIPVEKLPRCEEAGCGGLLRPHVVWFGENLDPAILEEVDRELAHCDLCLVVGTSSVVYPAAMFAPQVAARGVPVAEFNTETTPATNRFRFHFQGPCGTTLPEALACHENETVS
Chain of Potassium channel subfamily K member 9 (Q9NPC2 whole entry, the tested form may be a part): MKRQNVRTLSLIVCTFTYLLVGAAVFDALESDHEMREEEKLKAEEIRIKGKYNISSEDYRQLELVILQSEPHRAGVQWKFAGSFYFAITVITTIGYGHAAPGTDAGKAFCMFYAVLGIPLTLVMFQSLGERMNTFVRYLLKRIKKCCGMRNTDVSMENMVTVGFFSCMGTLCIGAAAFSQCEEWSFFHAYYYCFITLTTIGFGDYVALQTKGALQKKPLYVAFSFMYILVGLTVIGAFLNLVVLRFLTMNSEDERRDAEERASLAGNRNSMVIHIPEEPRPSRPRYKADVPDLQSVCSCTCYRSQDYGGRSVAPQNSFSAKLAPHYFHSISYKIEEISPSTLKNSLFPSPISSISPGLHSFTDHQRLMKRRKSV
Chain of Potassium channel subfamily K member 3 (O54912 whole entry, the tested form may be a part): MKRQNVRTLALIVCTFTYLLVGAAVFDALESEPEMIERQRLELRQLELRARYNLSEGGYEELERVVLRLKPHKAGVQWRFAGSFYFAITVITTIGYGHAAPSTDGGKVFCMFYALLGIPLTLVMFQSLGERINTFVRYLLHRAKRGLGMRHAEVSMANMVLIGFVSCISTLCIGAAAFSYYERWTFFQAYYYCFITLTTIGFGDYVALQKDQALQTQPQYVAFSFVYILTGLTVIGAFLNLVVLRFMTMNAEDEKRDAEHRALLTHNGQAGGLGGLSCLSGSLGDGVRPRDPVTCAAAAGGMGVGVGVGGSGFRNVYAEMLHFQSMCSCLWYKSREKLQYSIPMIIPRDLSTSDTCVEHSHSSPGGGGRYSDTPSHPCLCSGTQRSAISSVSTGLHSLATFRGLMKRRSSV

For `CC1CCCN(CCCOc2ccc(Br)cc2Cl)C1` (configuration not stated), which AC50 [1] is on record?
Its AC50 is 8.98 µM (active).

And the AC50 (Vero)?
The AC50 was 25.2 µM (active).

What about the AC50 (BHK-21) of the same molecule?
Its AC50 is 38.8 µM (active).

What about the AC50 (A549) of the same molecule?
The AC50 was 27.2 µM (active).

With `O=C(Nc1ccc(F)cc1)c1ccc2nsnc2c1` as the molecule, how does the AC50 [2] read?
The AC50 was > 52 µM (inactive).

Which results are given for `Cc1cccc(C(=O)NC(=S)NNC(=O)c2ccc(Cl)cc2)c1`?
EC50 [3]: 0.362 µM (active); IC50 [4]: 25.8 µM (not active); EC50 (Streptococcus): 1.09 µM (active); IC50 [5]: 21.9 µM (inactive)

Which AC50 [6] does the source give for `Cc1noc(C)c1NC(=O)N(C)C[C@@H]1Oc2cc(Br)ccc2S(=O)(=O)N([C@@H](C)CO)C[C@H]1C` here?
The AC50 was > 30 µM (inactive).

For `COc1ccc(S(=O)(=O)Nc2ccc3c(c2)C(=O)N([C@@H](C)CO)C[C@@H](C)[C@H](CN(C)Cc2ccc(C(F)(F)F)cc2)OCCCC[C@H](C)O3)cc1`, which AC50 (Paired box protein Pax-8) is on record?
The AC50 was 10.8 µM (active).

And the AC50 [7]?
The AC50 was 45.4 µM (active).

Which IC50 [8] does the source give for `CCOc1ccccc1C(=O)Nc1cccc(NC(=O)c2ccccc2C(F)(F)F)c1` here?
Its IC50 is 1.04 µM (active).

And the IC50 [9]?
The IC50 was 0.01 µM (active).

Which results are given for `CO[C@H]1CN(C)C(=O)c2cc(NC(=O)Nc3ccc(C(F)(F)F)cc3)ccc2OC[C@H](C)NC[C@H]1C`?
AC50 [10]: > 52 µM (inactive); AC50 [11]: > 52 µM (inactive); AC50 [12]: > 52 µM (inactive); AC50 [13]: 1.37 µM (active); AC50 [14]: 19.2 µM (active); AC50 [15]: 2.49 µM (active); AC50 [16]: 1.56 µM (active); AC50 [17]: 2.76 µM (active)

With `O=C(CCNC(=O)c1ccc(OC(F)(F)F)cc1)N[C@@H]1CCCc2ccccc21` as the molecule, how does the AC50 [18] read?
Its AC50 is 6.21 µM (active).

What about the AC50 [19] of the same molecule?
The AC50 was 26 µM (active).

With `COc1ccc(C(=O)NC(C)Cc2ccccn2)cc1OC1CCN(C(C)C)CC1` (configuration not stated) as the molecule, how does the IC50 [20] read?
The IC50 was 4.6 µM (active).

What does the source list for `NC(=O)COc1cccc(/C=N/NC(=O)c2ccc(-n3cccc3)cc2)c1`?
EC50 [21]: > 29.9 µM (inactive); IC50 [22]: > 1.11 µM (active); IC50 [23]: > 29.9 µM (inactive); EC50 [24]: > 29.9 µM (inactive)

For `CCCCCCCn1c2c(c(=N)c3c1CCC3)CCCC2`, which EC50 [25] is on record?
Its EC50 is > 160 µM (inactive).

What about the EC50 [26] of the same molecule?
The EC50 was 2.79 µM (active).

What about the EC50 [27] of the same molecule?
The EC50 was < 0.1 µM (active).

What about the IC50 [28] of the same molecule?
The IC50 was 16.7 µM (not active).

What about the EC50 [29] of the same molecule?
The EC50 was > 60 µM (not active).

And the AC50 [30]?
Its AC50 is 3.53 µM (active).

What about the IC50 (Galanin receptor type 3) of the same molecule?
The IC50 was > 1.11 µM (active).

What about the EC50 (cells [31]) of the same molecule?
The EC50 was 27.7 µM (inactive).

What about the AC50 [32] of the same molecule?
The AC50 was 6.62 µM (active).

And the AC50 [33]?
Its AC50 is 3.24 µM (active).

And the AC50 (Paired box protein Pax-8)?
Its AC50 is 0.677 µM (active).

And the AC50 [34]?
The AC50 was 2.6 µM (active).

And the EC50 (cells [35])?
The EC50 was 0.006 µM (active).

From ChEMBL document CHEMBL1201862, “PubChem BioAssay data set” (2004)
